In patent publication US5506217A, “Phosphonates as anti-cancer agents” (The University of British Columbia, priority 1994, dated 1996):
Where two headings read alike, the source gives them in different places.

Key:
WEHI-3B tumor cells [1] = test: colonogenic cell survival assay; format: cell-based; conditions: Mus musculus, WEHI3B, 120 h, methyl cellulose medium, five days, read-out: WEHI-3B Colonies Formed (Percentage of Control)
Method: Inhibition of colony formation in soft agar medium (colonogenic cell survival assay) is a more rigorous and direct measurement of cell kill or growth inhibition, and reflects the anti-cancer activity of the test compound. Briefly, tumor cells were cultured in petri dishes in methylcellulose, with or without a phosphonate test compound, and the number of colonies formed during a 5-day incubation period were counted.
Table 17 tabulates data obtained with two differrent phosphonate analogs using a colonogenic assay. Colonogenic assay is one of the most trusted tests for determination of effectiveness of an anti-cancer agent. The test is based on the formation of tumor colonies in vitro in a methyl cellulose or soft agar medium. The following results were obtained with the formation of colonies in methyl cellulose medium after five days in the presence or absence of four phosphonate analogs, two with a thioalkyl chain and two with an alkyloxy chain.

WEHI-3B tumor cells [2] = test: 3H-thymidine incorporation assay; format: cell-based; conditions: Mus musculus, WEHI3B; for viability at 6.25 µM / viability at 12.5 µM / viability at 25 µM / viability at 50 µM: percent [3H]thymidine uptake, WEHI-3B, read-out: Cell Viability (% of Control); for viability at 12.5 µM: 12.50 μM
Method: (§1) Experiments were performed using a number of different rumor cell lines. Tumor cells were cultured in RPMI-1640 medium supplemented with 10% fetal bovine serum, penicillin (50 units/mL), streptomycin (50 μg/mL) and mercaptoethanol (5 μg/mL) in an atmosphere of 5% CO2. The cells were passaged weekly by serial 1/10 to 1/10,000 dilutions. The cell viability and growth were constantly monitored by staining with trypan blue exclusion dye or the incorporation of tritiated thymidine.
(§2) Inhibition of ^3 H-thymidine incorporation into the DNA of cells by a test compound is an indirect measurement of cell kill or growth inhibition, and reflects the anti-cancer activity of the compound.
Tumor cells (2×104 ^4 cells/well) were placed in 200 μL of medium in 96-well plastic microtiter plates; a further 5 μL of medium either with or without phosphonate was added. […] The cells were then harvested using a Brandel cell harvester (model M-12) and collected on Whatman glass microfilters. The radioactivity associated with the filters was quantified in a liquid scintillation counter, and the amount of ^3 H-thymidine incorporated into tumor cells treated with the phosphonate compound was calculated as a percentage of the amount of ^3 H-thymidine incorporated into untreated tumor cells.
The biological activities of 4-hexadecylthio-3(S ) -3-methoxybutane-l-phosponocholine and its enantiomer 4-hexadecylthio-3(R)-3-methoxybutane-1-phosphonocholine were studied on several cancer cell lines. […] The cell viability, was determined as percent[^3 H]thymidine uptake into the cell DNA. The following results are mean of five samples ± S.D.

B-16/F10 melanoma cells = test: B-16/F10 melanoma metastasis in C57BL/6 mice; format: in vivo; conditions: 10 mg/kg IV (day 0, 4 and 8)
Method: Highly metastatic B-16/F10 melanoma cells were injected into the tail veins of female C57BL/6 mice (1×10^5 cells per mouse). Treatment of one group of mice with the phosphonate compound of the above formula (compound VIII), dissolved into 0.5mL ethanol, 0.5 mL cremaphor and 9.0 mL phosphate buffered saline, began three days after the tumor cells were injected. lntramuscular injections of 0.2 mL of the phosphonate emulsion (10 mg/kg/day) were given for 5 days per week for 2 weeks. A second group of mice were treated with Adriamycin (10 mg/kg given intravenously on days 0, 4 and 8) as a known anti-cancer drug control group, while a third group of mice received the vehicle emulsion alone. The mice were examined every day for general health, behaviour and body weight. Counts of metastatic melanomic tumor colonies found in the lungs, general observations of metastasis to distant organs and examination of organs (liver, kidneys, lungs and spleen) were taken at autopsy 4 weeks after treatment.

HL-60 tumor cells = test: 3H-thymidine incorporation assay; format: cell-based; conditions: Homo sapiens, HL-60 cells, read-out: Thymidine uptake (% of control)
Method: as §1, §2
Tumor cells (2×104 ^4 cells/well) were placed in 200 μL of medium in 96-well plastic microtiter plates; a further 5 μL of medium either with or without phosphonate was added. After incubation for 24, 48 or 72 hours at 37° C. in a humidified atmosphere containing 5% CO2, the wells were pulsed with 0.1 μCi of ^3 H-thymidine for an additional 24 hours. The cells were then harvested using a Brandel cell harvester (model M-12) and collected on Whatman glass microfilters. The radioactivity associated with the filters was quantified in a liquid scintillation counter, and the amount of ^3 H-thymidine incorporated into tumor cells treated with the phosphonate compound was calculated as a percentage of the amount of ^3 H-thymidine incorporated into untreated tumor cells.

[3] = Table 3: 48 hours in title (text: 72 hours)
[4] = 24 hours, read-out: Thymidine uptake (% of control)
[5] = 48 hours, WEHI-3B cells, read-out: Thymidine uptake (% of control)
[6] = Table 3: 48 hours in title (text: 72 hours), WEHI-3B cells, read-out: Thymidine uptake (% of control)

With `CCCCCCCCCCCCCCCCSC[C@@H](CCP(=O)([O-])OCC[N+](C)(C)C)OC` [Compound 2, 4hexadecylthio-3-O-methyl-3(R)-butane-phosphonocholine] the activity at 0.6 µM (WEHI-3B tumor cells [1]) was 54%, the activity at 1.25 µM (WEHI-3B tumor cells [1]) was 44% and the activity at 2.5 µM (WEHI-3B tumor cells [1]) was 36%. For the same compound, the activity at 5 µM (WEHI-3B tumor cells [1]) was 21%, the activity at 10 µM (WEHI-3B tumor cells [1]) was 5% and the activity at 20 µM (WEHI-3B tumor cells [1]) was 0%. The viability at 6.25 µM (WEHI-3B tumor cells [2]) was 61 ± 0.4%, the viability at 12.5 µM (WEHI-3B tumor cells [2]) was 24 ± 2.7% and the viability at 25 µM (WEHI-3B tumor cells [2]) was 22 ± 4.6%. The viability at 50 µM (WEHI-3B tumor cells [2]) was 12 ± 1.2%.

`COc1cccc2c1C(=O)c1c(O)c3c(c(O)c1C2=O)C[C@@](O)(C(=O)CO)C[C@@H]3O[C@H]1C[C@H](N)[C@H](O)[C@H](C)O1` [Adriamycin, reference compound] was tested, and the “melanomic tumor colonies in the lungs (in words)” value (B-16/F10 melanoma cells) was “none of the Adriamycin-treated mice developed melanomic tumor colonies in their lungs”, the “Melanomic tumor colonies found in the lungs at autopsy” value (from here on “Melanomic tumor colonies found”) (B-16/F10 melanoma cells; Mouse 1) was 0 and the “Melanomic tumor colonies found” value (B-16/F10 melanoma cells; Mouse 2) was 0. For the same compound, the “Melanomic tumor colonies found” value (B-16/F10 melanoma cells; Mouse 3) was 0, the “Melanomic tumor colonies found” value (B-16/F10 melanoma cells; Mouse 4) was 0 and the “Melanomic tumor colonies found” value (B-16/F10 melanoma cells; Mouse 5) was 0. For the same compound, the “Melanomic tumor colonies found” value (B-16/F10 melanoma cells; Mouse 6) was 0.

Work on `CCCCCCCCCCCCCCCCCCOCC(CP(=O)([O-])OCC[N+](C)(C)C)OC` (stereo not shown) [compound V] yielded an activity at 0.62 µM (HL-60 tumor cells; 48 hours) of 84 ± 5%, an activity at 0.62 µM (HL-60 tumor cells; [3]) of 93 ± 4% and an activity at 1.25 µM (HL-60 tumor cells; 48 hours) of 76 ± 4%. For the same compound, the activity at 1.25 µM (HL-60 tumor cells; [3]) was 81 ± 4%, the activity at 2.5 µM (HL-60 tumor cells; 48 hours) was 63 ± 4% and the activity at 2.5 µM (HL-60 tumor cells; [3]) was 66 ± 3%. For the same compound, the activity at 5 µM (HL-60 tumor cells; 48 hours) was 24 ± 3%, the activity at 5 µM (HL-60 tumor cells; [3]) was 16 ± 4% and the activity at 10 µM (HL-60 tumor cells; 48 hours) was 3 ± 2%. The activity at 10 µM (HL-60 tumor cells; [3]) was 5 ± 1%, the activity at 20 µM (HL-60 tumor cells; 48 hours) was 1% and the activity at 20 µM (HL-60 tumor cells; [3]) was 1 ± 0.9%. The activity at 0.62 µM (WEHI-3B tumor cells [2]; [4]) was 137 ± 6%, the activity at 0.62 µM (WEHI-3B tumor cells [2]; [5]) was 93 ± 6% and the activity at 0.62 µM (WEHI-3B tumor cells [2]; [6]) was 85 ± 3%. For the same compound, the activity at 1.25 µM (WEHI-3B tumor cells [2]; [4]) was 93 ± 7%, the activity at 1.25 µM (WEHI-3B tumor cells [2]; [5]) was 90 ± 5% and the activity at 1.25 µM (WEHI-3B tumor cells [2]; [6]) was 86 ± 4%. For the same compound, the activity at 2.5 µM (WEHI-3B tumor cells [2]; [4]) was 91 ± 4%, the activity at 2.5 µM (WEHI-3B tumor cells [2]; [5]) was 86 ± 8% and the activity at 2.5 µM (WEHI-3B tumor cells [2]; [6]) was 82 ± 6%. For the same compound, the activity at 5 µM (WEHI-3B tumor cells [2]; [4]) was 88 ± 11%, the activity at 5 µM (WEHI-3B tumor cells [2]; [5]) was 61 ± 6% and the activity at 5 µM (WEHI-3B tumor cells [2]; [6]) was 60 ± 4%. For the same compound, the activity at 10 µM (WEHI-3B tumor cells [2]; [4]) was 76 ± 6%, the activity at 10 µM (WEHI-3B tumor cells [2]; [5]) was 23 ± 2% and the activity at 10 µM (WEHI-3B tumor cells [2]; [6]) was 26 ± 3%. The activity at 20 µM (WEHI-3B tumor cells [2]; [4]) was 48 ± 4%, the activity at 20 µM (WEHI-3B tumor cells [2]; [5]) was 18 ± 8% and the activity at 20 µM (WEHI-3B tumor cells [2]; [6]) was 10 ± 3%. It also gave an activity at 40 µM (WEHI-3B tumor cells [2]; 40 μM, 24 hours, read-out: Thymidine uptake (% of control)) of 43 ± 15%.

For `CCCCCCCCCCCCCCCCSC[C@H](CCP(=O)([O-])OCC[N+](C)(C)C)OC` [Compound 1, 4hexadecylthio-3-O-methyl-3(S)-butane-phosphonocholine], the activity at 0.6 µM (WEHI-3B tumor cells [1]) was 88%, the activity at 1.25 µM (WEHI-3B tumor cells [1]) was 95% and the activity at 2.5 µM (WEHI-3B tumor cells [1]) was 55%. For the same compound, the activity at 5 µM (WEHI-3B tumor cells [1]) was 52%, the activity at 10 µM (WEHI-3B tumor cells [1]) was 22% and the activity at 20 µM (WEHI-3B tumor cells [1]) was 9%. The viability at 6.25 µM (WEHI-3B tumor cells [2]) was 55 ± 0.5%, the viability at 12.5 µM (WEHI-3B tumor cells [2]) was 31 ± 3.4% and the viability at 25 µM (WEHI-3B tumor cells [2]) was 21 ± 0.2%. For the same compound, the viability at 50 µM (WEHI-3B tumor cells [2]) was 2 ± 1.4%.
